Data reported in PubChem BioAssay AID1919004 (Molecular Pharmacology Branch, DTP, NCI, 2023).
One block for each compound: values may come before it.

System: 883617-216-R-J1-PDC complex spheroids, growth, % test/control
Experiment: Anticancer human tumor 883617-216-R-J1-PDC patient-derived bladder carcinoma cell line growth inhibition [AhR]
Details: for IC50: curve of first compound; for viability, T/C: stronger effect = lower value
Procedure, shortened: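 Complex tumor spheroids co-cultured with HUVEC and human MSC stroma; AhR antagonists tested in combination with standard-of-care and investigational agents. Top concentration at or near clinical Cmax (else 10 microM), half-log dilutions; growth expressed as percent test/control.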

[1] = second compound 0.1 µM, first compound 0.0316 µM
[2] = second compound 0.1 µM, first compound 0.1 µM
[3] = second compound 0.1 µM, first compound 0.316 µM
[4] = second compound 0.1 µM, first compound 1 µM
[5] = second compound 0.316 µM, first compound 0.0316 µM
[6] = second compound 0.316 µM, first compound 0.1 µM
[7] = second compound 0.316 µM, first compound 0.316 µM
[8] = second compound 0.316 µM, first compound 1 µM
[9] = second compound 1 µM, first compound 0.0316 µM
[10] = second compound 1 µM, first compound 0.1 µM
[11] = second compound 1 µM, first compound 0.316 µM
[12] = second compound 1 µM, first compound 1 µM
[13] = second compound 3.16 µM, first compound 0.0316 µM
[14] = second compound 3.16 µM, first compound 0.1 µM
[15] = second compound 3.16 µM, first compound 0.316 µM
[16] = second compound 3.16 µM, first compound 1 µM
[17] = second compound 10 µM, first compound 0.0316 µM
[18] = second compound 10 µM, first compound 0.1 µM
[19] = second compound 10 µM, first compound 0.316 µM
[20] = second compound 10 µM, first compound 1 µM
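Note: exposure lasted 7 days after dosing on day 3 of spheroid growth.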

- IC50 (second compound 0.1 µM): > 10000 nM
- IC50 (second compound 0.316 µM): > 10000 nM
- IC50 (second compound 1 µM): > 10000 nM
- IC50 (second compound 3.16 µM): > 10000 nM
- IC50 (second compound 10 µM): > 10000 nM
SMILES: CC1(C)CCC(CN2CCN(c3ccc(C(=O)NS(=O)(=O)c4ccc(NCC5CCOCC5)c([N+](=O)[O-])c4)c(Oc4cnc5[nH]ccc5c4)c3)CC2)=C(c2ccc(Cl)cc2)C1 + CC(CO)NC(=O)c1cc(-c2ccc(Cl)cc2)nn(-c2cnn(C)c2)c1=O
- viability, T/C [1]: 77%
- viability, T/C [2]: 90.8%
- viability, T/C [3]: 136%
- viability, T/C [4]: 95.4%
- viability, T/C (second compound 0.1 µM, first compound 3.16 µM): 90.3%
- viability, T/C (second compound 0.1 µM, first compound 10 µM): 59.4%
- viability, T/C [5]: 83.2%
- viability, T/C [6]: 93.9%
- viability, T/C [7]: 102%
- viability, T/C [8]: 88.2%
- viability, T/C (second compound 0.316 µM, first compound 3.16 µM): 96.9%
- viability, T/C (second compound 0.316 µM, first compound 10 µM): 68.5%
- viability, T/C [9]: 90.6%
- viability, T/C [10]: 114%
- viability, T/C [11]: 152%
- viability, T/C [12]: 71.4%
- viability, T/C (second compound 1 µM, first compound 3.16 µM): 82.4%
- viability, T/C (second compound 1 µM, first compound 10 µM): 78.2%
- viability, T/C [13]: 79.5%
- viability, T/C [14]: 132%
- viability, T/C [15]: 97.1%
- viability, T/C [16]: 115%
- viability, T/C (second compound 3.16 µM, first compound 3.16 µM): 83.4%
- viability, T/C (second compound 3.16 µM, first compound 10 µM): 68.7%
- viability, T/C [17]: 91.9%
- viability, T/C [18]: 143%
- viability, T/C [19]: 171%
- viability, T/C [20]: 83.9%
- viability, T/C (second compound 10 µM, first compound 3.16 µM): 122%
- viability, T/C (second compound 10 µM, first compound 10 µM): 103%

- IC50 (second compound 0.1 µM): > 300 nM
- IC50 (second compound 0.316 µM): > 300 nM
- IC50 (second compound 1 µM): > 300 nM
- IC50 (second compound 3.16 µM): > 300 nM
- IC50 (second compound 10 µM): 300 nM
SMILES: CCc1c2c(nc3ccc(O)cc13)-c1cc3c(c(=O)n1C2)COC(=O)[C@]3(O)CC + CC(CO)NC(=O)c1cc(-c2ccc(Cl)cc2)nn(-c2cnn(C)c2)c1=O
- viability, T/C (second compound 0.1 µM, first compound 0.000949 µM): 50.4%
- viability, T/C (second compound 0.1 µM, first compound 0.003 µM): 64.7%
- viability, T/C (second compound 0.1 µM, first compound 0.00949 µM): 66.9%
- viability, T/C (second compound 0.1 µM, first compound 0.03 µM): 39.6%
- viability, T/C (second compound 0.1 µM, first compound 0.0949 µM): 85.5%
- viability, T/C (second compound 0.1 µM, first compound 0.3 µM): 86%
- viability, T/C (second compound 0.316 µM, first compound 0.000949 µM): 68.2%
- viability, T/C (second compound 0.316 µM, first compound 0.003 µM): 63.3%
- viability, T/C (second compound 0.316 µM, first compound 0.00949 µM): 87.4%
- viability, T/C (second compound 0.316 µM, first compound 0.03 µM): 47.8%
- viability, T/C (second compound 0.316 µM, first compound 0.0949 µM): 69.9%
- viability, T/C (second compound 0.316 µM, first compound 0.3 µM): 80.7%
- viability, T/C (second compound 1 µM, first compound 0.000949 µM): 83.1%
- viability, T/C (second compound 1 µM, first compound 0.003 µM): 88.2%
- viability, T/C (second compound 1 µM, first compound 0.00949 µM): 145%
- viability, T/C (second compound 1 µM, first compound 0.03 µM): 64.1%
- viability, T/C (second compound 1 µM, first compound 0.0949 µM): 89.4%
- viability, T/C (second compound 1 µM, first compound 0.3 µM): 63.9%
- viability, T/C (second compound 3.16 µM, first compound 0.000949 µM): 110%
- viability, T/C (second compound 3.16 µM, first compound 0.003 µM): 63.3%
- viability, T/C (second compound 3.16 µM, first compound 0.00949 µM): 40.5%
- viability, T/C (second compound 3.16 µM, first compound 0.03 µM): 77.9%
- viability, T/C (second compound 3.16 µM, first compound 0.0949 µM): 92.7%
- viability, T/C (second compound 3.16 µM, first compound 0.3 µM): 73.8%
- viability, T/C (second compound 10 µM, first compound 0.000949 µM): 73.2%
- viability, T/C (second compound 10 µM, first compound 0.003 µM): 61.7%
- viability, T/C (second compound 10 µM, first compound 0.00949 µM): 103%
- viability, T/C (second compound 10 µM, first compound 0.03 µM): 87.3%
- viability, T/C (second compound 10 µM, first compound 0.0949 µM): 43.6%
- viability, T/C (second compound 10 µM, first compound 0.3 µM): 57.4%

- IC50 (second compound 0.1 µM): > 1000 nM
- IC50 (second compound 0.316 µM): > 1000 nM
- IC50 (second compound 1 µM): > 1000 nM
- IC50 (second compound 3.16 µM): > 1000 nM
- IC50 (second compound 10 µM): < 3.16 nM
SMILES: CC1COCCN1c1cc(-c2ccnn2C)c2ccnc(-c3ccn[nH]3)c2n1 (stereo not given) + Cc1cncc(-c2nc(NCCc3c[nH]c4ccccc34)c3ncn(C(C)C)c3n2)c1
- viability, T/C (second compound 0.1 µM, first compound 0.00316 µM): 94.9%
- viability, T/C (second compound 0.1 µM, first compound 0.01 µM): 92.8%
- viability, T/C [1]: 83.7%
- viability, T/C [2]: 76.5%
- viability, T/C [3]: 61.5%
- viability, T/C [4]: 53.9%
- viability, T/C (second compound 0.316 µM, first compound 0.00316 µM): 101%
- viability, T/C (second compound 0.316 µM, first compound 0.01 µM): 103%
- viability, T/C [5]: 98.5%
- viability, T/C [6]: 77.3%
- viability, T/C [7]: 60.2%
- viability, T/C [8]: 54.5%
- viability, T/C (second compound 1 µM, first compound 0.00316 µM): 96.1%
- viability, T/C (second compound 1 µM, first compound 0.01 µM): 107%
- viability, T/C [9]: 95.9%
- viability, T/C [10]: 76%
- viability, T/C [11]: 70.3%
- viability, T/C [12]: 60.5%
- viability, T/C (second compound 3.16 µM, first compound 0.00316 µM): 115%
- viability, T/C (second compound 3.16 µM, first compound 0.01 µM): 113%
- viability, T/C [13]: 117%
- viability, T/C [14]: 87.6%
- viability, T/C [15]: 72.7%
- viability, T/C [16]: 55.9%
- viability, T/C (second compound 10 µM, first compound 0.00316 µM): 45.3%
- viability, T/C (second compound 10 µM, first compound 0.01 µM): 50.8%
- viability, T/C [17]: 51.5%
- viability, T/C [18]: 39.8%
- viability, T/C [19]: 30.9%
- viability, T/C [20]: 27.4%
